Experimental data as given in patent US9801844B2, “Methods and compositions for the treatment of cancer” (priority 2012, dated 2017).
“And” between values parts separate entries of the source, which are not always exact repeats. Equal entries are not always repeated.

Tests used:
[1] = system: MDA-MB-468 human breast cancer cells; assay: Microarray gene expression analysis (Affymetrix, AffyLimma); assay type: cell-based; conditions: 6 h
Description: MDA-MB-468 cells were treated with 5 μg/mL (15 μM) or 20 μg/mL of CA for 6 or 24 h. RNA was isolated using methods known in the art. Total cellular RNA was extracted using Trizol (Invitrogen; Carlsbad, Calif.) according to the manufacturer's protocol with minor modifications, and then purified twice with Qiagen's RNeasy column. Total RNA (8 μg) was reverse transcribed with T7-(dT)24 primer and Super Script III reverse transcriptase (Invitrogen).
Microarray analysis was performed using methods known in the art. Labeled cDNA was generated from MDA-MB-468 cells and hybridized to Affymetrix […] genome arrays at Columbia University following standard Affymetrix protocols. Analysis was performed using the AffyLimmaGUI package in the open-source Bioconductor suite.
Affy-Limma analysis was used to determine the effects of carnosic acid, at a dose of 20 μg/ml and at 6 h on the gene expression pattern in MDA-MB-468 breast cancer cells. Assays were performed as described in the Materials and methods section. Fold change (log) is the mean of the ratio of hybridization signals in carnosic acid treated vs. control treated cells {40 highest M (log-fold) values; p<0.05}.
For gene expression analysis, the samples were analyzed by AffyLima analysis. The statistical significance of differential expression was calculated using the empirical Bayesian LIMMA ([…]) method of Smyth et al. (Smyth, G. K. et al., “Use of within-array replicate spots for assessing differential expression in microarray experiments.” Bioinformatics 2005; 21:2067-75, incorporated herein by reference): B=log e(odds of differential expression), the Bayesian natural (base e) log of the odds that the genes are differentially expressed.

[2] = system: HT29 human colon cancer cells; assay: Proliferation assay (MTT) on HT29 cells; assay type: cell-based; conditions: 1 μg/ml, HT29, 96 h
Description: The HT29 cells were maintained in McCoy's Media containing 10% (v/v) fetal bovine serum (FBS) (Gibco BRL) at 37° C., 5% C02.
MTT assay: the MTT {3-(4,5-dimethyl-2-thiazol)-2,5-diphenyl-2H tetrazolilum bromide} (Dojindo; Tokyo, Japan) cell proliferation assay system (Roche Diagnostic, Mannheim, Germany) was used to determine the sensitivity of the various cell lines to agents. Cells were seeded at 1×10^4 cells/well in 96-well plates and allowed to attach for 24 h. The medium was replaced with fresh medium containing DMSO or compound. The cells were treated for 96 or 120 h, after which they were incubated with MTT reagents and the absorbance read at 650 and 575 nm. For cell growth assays, the data are expressed as mean+/−standard deviation. Control and treated cells were compared using the student's t-test (p<0.05).
HT29 (p53 positive human colon cancer cells), as well as MDA-MB-453 Her2 overexpressing ER-negative human breast cancer cells are treated with increasing concentrations of the liposome carnosic acid complex and carnosic acid.
Cells were exposed to increasing concentrations of agents for 96 h and the number of viable cells determined by the MTT assay.

[3] = system: ER-negative SUM149 cells; assay: MTT cell proliferation assay on SUM149 cells; assay type: cell-based; conditions: read-out: IC50 growth inhibition
Description: MDA-MB-453 (ER negative, Her2 overexpressing), MDA-MB-468 (triple negative) and MCF7 (ER positive, Her2 low) cells, HT29 (p53 positive human colon cancer cells) (ATCC, Manassas, Va.) were grown in Dulbecco's Modified Eagle's medium (DMEM) (Gibco BRL Life Technologies, Inc., Rockville, Md.) containing 10% (v/v) fetal bovine serum (FBS) (Gibco BRL) at 37° C., 5% C02. SUM 149 (Her2 overexpressing, ER low) (the gift of Dr. R. Parsons, Columbia University Medical Center, New York, N.Y.) were cultivated in Ham's F-12 medium with 10% FBS. MCF7 and MCF7/Her2-18 (MCF7 cells transfected with a full length Her2 cDNA coding region, 45-fold increase Her2) were the kind gift of Dr. Dennis Slamon (Los Angeles, Calif.). These cells were maintained in RPMI supplemented with 10% FBS plus glutamine (1%) and PSF (1%) (Gibco, Rockville Md.).
MTT assay: the MTT {3-(4,5-dimethyl-2-thiazol)-2,5-diphenyl-2H tetrazolilum bromide} (Dojindo; Tokyo, Japan) cell proliferation assay system (Roche Diagnostic, Mannheim, Germany) was used to determine the sensitivity of the various cell lines to agents. Cells were seeded at 1×10^4 cells/well in 96-well plates and allowed to attach for 24 h. […] The cells were treated for 96 or 120 h, after which they were incubated with MTT reagents and the absorbance read at 650 and 575 nm. For cell growth assays, the data are expressed as mean+/−standard deviation. […]

[4] = system: MDA-MB-468 cells; assay: Real-time RT-PCR of specific mRNAs in MDA-MB-468 cells; assay type: cell-based, human; conditions: for increase in expression of RNA of CDKN1A: 4 μg/ml, MDA-MB-468
Description: Real-time RT-PCR analysis was performed on 2 technical replicates of at least 2 biological sample replicates.
Real-time quantitative RT-PCR methods were used to determine the nature of the RNA induced by treatment with CA, using the Real Time PCR machine Stratagene MX3005P QPCR System.
Real-time RT-PCR analysis was performed to examine the mode of action of CA. In MDA-MB-468 cells, CA at 4 μg/ml induced an increase in expression of RNA of the tumor suppressor gene CDKN1A; for MDA-MB-468 cells (6 h: 1.51-logfold; 24 h: 1.61-logfold) (FIG. 3A); for SUM149 cells (6 h: 2.7-logfold). CA had little effect on the expression of the tumor suppressor gene BRCA1.

## CC(C)c1cc2c(c(O)c1O)[C@@]1(C(=O)O)CCCC(C)(C)[C@@H]1CC2 [carnosic acid]
[1]; 20 μg/ml
  number of genes altered, p<0.05: 124 genes
  ratio of genes activated to suppressed: 4.6
[1]; higher dose (20 μg/ml)
  number of genes repressed: 22 genes
  number of genes whose expression is activated: 102 genes
[1]; low dose (5 μg/ml), glutathione metabolism and transport genes
  number of genes whose expression is activated: 3 genes
[1]; probe 22577_x_at, 20 μg/ml
  M (log-fold) GDF15/LOC100292463 expression: 3.2033 log-fold
[1]; probe 201266_at, 20 μg/ml
  M (log-fold) TXNRD1 expression: 1.6785 log-fold
[1]; probe 201510_at, 20 μg/ml
  M (log-fold) ELF3 expression: −1.3391 log-fold
[1]; probe 202814_s_at, 20 μg/ml
  M (log-fold) HEXIM1 expression: −1.2946 log-fold
[1]; probe 202922_at, 20 μg/ml
  M (log-fold) GCLC expression: 2.5514 log-fold
[1]; probe 202923_s_at, 20 μg/ml
  M (log-fold) GCLC expression: 2.3524 log-fold
[1]; probe 203665_at, 20 μg/ml
  M (log-fold) HMOX1 expression: 6.2079 log-fold
[1]; probe 203702_s_at, 20 μg/ml
  M (log-fold) TTLL4 expression: 1.4497 log-fold
[1]; probe 203925_at, 20 μg/ml
  M (log-fold) GCLM expression: 1.6079 log-fold
[1]; probe 204159_at, 20 μg/ml
  M (log-fold) CDKN2C expression: −1.5843 log-fold
[1]; probe 204286_s_at, 20 μg/ml
  M (log-fold) PMAIP1 expression: 1.5443 log-fold
[1]; probe 204411 at, 20 μg/ml
  M (log-fold) KIF21B expression: 2.0237 log-fold
[1]; probe 205379_at, 20 μg/ml
  M (log-fold) CBR3 expression: 1.4702 log-fold
[1]; probe 206085_s_at, 20 μg/ml
  M (log-fold) CTH expression: 2.3083 log-fold
[1]; probe 206155_at, 20 μg/ml
  M (log-fold) ABCC2 expression: 2.2558 log-fold
[1]; probe 206515 _at, 20 μg/ml
  M (log-fold) CYP4F3 expression: 2.4762 log-fold
[1]; probe 206561_s_at, 20 μg/ml
  M (log-fold) AKR1B10 expression: 2.3416 log-fold
[1]; probe 207528_s_at, 20 μg/ml
  M (log-fold) SLC7A11 expression: 2.3041 log-fold
[1]; probe 207826_s_at, 20 μg/ml
  M (log-fold) ID3 expression: −1.9788 log-fold
[1]; probe 209383_at, 20 μg/ml
  M (log-fold) DDIT3/NR1H3 expression: 1.8207 log-fold
[1]; probe 209409_at, 20 μg/ml
  M (log-fold) GRB10 expression: 1.6777 log-fold
[1]; probe 209882_at, 20 μg/ml
  M (log-fold) RIT1 expression: 1.3792 log-fold
[1]; probe 209921_at, 20 μg/ml
  M (log-fold) SLC7A11 expression: 3.7330 log-fold
[1]; probe 210015_s_at, 20 μg/ml
  M (log-fold) MAP2 expression: 1.9566 log-fold
[1]; probe 211653_x_at, 20 μg/ml
  M (log-fold) AKR1C2 expression: 4.1458 log-fold
[1]; probe 213051_at, 20 μg/ml
  M (log-fold) ZC3HAV1 expression: −1.5819 log-fold
[1]; probe 216594_x_at, 20 μg/ml
  M (log-fold) AKR1C1 expression: 3.8405 log-fold
[1]; probe 217127_at, 20 μg/ml
  M (log-fold) CTH expression: 2.3586 log-fold
[1]; probe 217678_at, 20 μg/ml
  M (log-fold) SLC7A11 expression: 3.9492 log-fold
[1]; probe 217738_at, 20 μg/ml
  M (log-fold) NAMPT expression: 1.4857 log-fold
[1]; probe 217739_s_at, 20 μg/ml
  M (log-fold) NAMPT expression: 1.7329 log-fold
[1]; probe 217996_at, 20 μg/ml
  M (log-fold) PHLDA1 expression: 1.9833 log-fold
[1]; probe 218041_x_at, 20 μg/ml
  M (log-fold) SLC38A2 expression: 1.2613 log-fold
[1]; probe 218145_at, 20 μg/ml
  M (log-fold) TRIB3 expression: 1.6338 log-fold
[1]; probe 218553_s_at, 20 μg/ml
  M (log-fold) KCTD15 expression: 1.3491 log-fold
[1]; probe 219475_at, 20 μg/ml
  M (log-fold) OSGIN1 expression: 1.9508 log-fold
[1]; probe 220924_s_at, 20 μg/ml
  M (log-fold) SLC38A2 expression: 1.2541 log-fold
[1]; probe 221215_s_at, 20 μg/ml
  M (log-fold) RIPK4 expression: −1.2540 log-fold
[1]; probe 221865_at, 20 μg/ml
  M (log-fold) C9orf91 expression: 1.3335 log-fold
[1]; probe 222168_at, 20 μg/ml
  M (log-fold) ALDH1A3 expression: −1.4627 log-fold
[2]
  % proliferation: 99.3%
[3]
  IC50: 1.7 µg/mL and 5.1 µM
[4]; 6 h
  increase in expression of RNA of CDKN1A: 1.51 logfold
[4]; 24 h
  increase in expression of RNA of CDKN1A: 1.61 logfold
[4]; 6 h, real-time RT-PCR
  effect on expression of the vitamin D receptor: slight increase in expression
[4]; real-time RT-PCR
  effect on expression of BRCA1: little effect
  effect on expression of CYP24A1: significant increase in expression
